Experimental data from patent publication US8946436B2, “Oxazolidinone compounds and their uses in preparation of antibiotics” (Sichuan Gooddoctor Pharmaceutical Group Co., Ltd., priority 2011, dated 2015).
In brackets after ≈: the same amount, converted by molar mass. Where two headings read alike, the source gives them in different places.

Key:
S. agalactiae = assay: In vitro antibacterial activity (MIC), S. agalactiae; format: cell-based; details: S. agalactiae (5 strains)
Description: (§1) The test strain was inoculated into the liquid medium and cultured at 37° C. for 16-18 h. The culture liquid and MH medium were put into two blank wells of a 96-well plate, respectively. Then, the absorptions thereof were measured by a Microplate reader. The difference between the absorption values of the culture liquid and MH medium is the adsorption of the bacteria. The concentration of the culture liquid can be calculated according to the formula of 1OD=50 million CFU/mL. The culture liquid was diluted with the MH bouillon culture medium to 5000 CFU/mL for further use.
(§2) Compounds 12a, 13 and 14 were dissolved in DMSO to 1 mg/mL, and then filtered with a 0.22 μm filter to obtain the compound solutions. And then they were gradually diluted to a desired concentration (10× final concentration) with the liquid medium, so as to obtain a series of dilutions. The final concentration grade of the dilutions of each tested compound consists of 14 concentrations, which includes: 0.03125 μg/mL, […], 0.125 μg/mL, 0.25 μg/mL, […], 1 μg/mL, 2 μg/mL, 4 μg/mL, 8 μg/mL, 16 μg/mL, 32 μg/mL, 64 μg/mL, 128 μg/mL and 256 μg/mL.
(§3) 10 μL of each of the compound dilutions above was added into a well of a 96-well plate. 90 μL of the culture liquid (5000 CFU/mL) was added into each of the wells, respectively, mixed with the dilutions to render the tested compound concentration to the final concentration. The resulted mixture was incubated at 37° C. for 16-18 h, and then the OD630 thereof was measured. A culture liquid free of the tested compounds is used as a blank control, and three parallel tests with the same concentration of each compound were performed. The minimum inhibitory concentration (MIC) of each compound on the standard strain of Staphylococcus Aureus and other test strains was determined. Specifically, among the culture liquid contained in the wells of the micro-plate, the first three lowest concentrations under which growth of the test strains could be observed were chose for further evaluation of the MIC. A culture liquid free of tested compounds was used as a blank control. Each of the culture liquids was homogenized independently, and then was diluted with a sterile saline. Each of the diluted culture liquids was plated onto a MH bouillon plate and incubated at 37° C. for 20 h in incubator. After the incubation, the number of the colonies on each plate was counted. As compared with the blank control group, the lowest concentration of each of the test compound groups, at which 80% reduction in the colony number of the strains was achieved, was recorded as the MIC.

[1] = system: Enterococcus faecium-resistant vancomycin; assay: MIC against clinically isolated strains, vancomycin resistant Enterococcus faecium; format: cell-based; details: Enterococcus faecium-resistant vancomycin (12 strains)
Source text: (§4) Standard strains, including Staphylococcus aureus ATCC29213, S. pneumoniae ATCC49619, E. faecalis ATCC29212, are all available from the American Type Culture Collection.
(§5) Clinically isolated strains: There are total 120 clinical strains of gram-positive bacterium including: 37 strains of Staphylococcus aureus (consisting of 14 strains of methicillin sensitive Staphylococcus aureus MSSA and 23 strains of methicillin resistant Staphylococcus aureus MRSA); 27 strains of Streptococcus pneumoniae (consisting of 13 strains of penicillin sensitive Streptococcus pneumoniae PSSP and 14 strains of penicillin insensitive or resistant Streptococcus pneumoniae PISP+PRSP); 15 strains of Streptococcus pyogenes; 17 strains of Streptococcus agalactiae; 24 stains of Enterococcus faecium (consisting of 12 strains of vancomycin sensitive Enterococcus faecium and 12 strains of vancomycin resistant Enterococcus faecium).
(§6) (2) Tested compounds: Compound 13f was prepared by the methods above, with potency of over 98%; Linezolid was purchased from Pfizer, with potency of 100%.
(§7) Staphylococcus and Enterococcus faecium were incubated in Mueller-Hinton agar medium (MHA medium) at 35° C. for 16-20 h; S. pneumoniae was incubated in Cation-Adjusted Mueller-Hinton Broth medium (CAMHB medium) supplemented with 2.5-5.5% (v/v) lysed horse blood (LHB) at 35° C. for 20-24 h; and Streptococcus were incubated in sheep blood-containing medium (prepared by addition of 5% defibrinated sheep blood into MHA media) at 35° C. for 20-24 h in 5% CO2 environment (CO2 incubator). Before test of the compound activity, each stock of the bacteria strains was activated and colonized in the following manner: the stock was transferred and cultured in a liquid culture medium, the culture liquid was smeared onto an agar plate with an inoculating loop to obtain bacterial colonies on the plate after incubation, and then a colony of the bacteria was chose to be suspended into the liquid culture medium for performing the test of compound activity. As a result, fresh bacteria cells were applied to the test. The standard strains were used as sensitive bacterium to control the quality of the experiments, and a plate or tube containing no antibacterial compounds is used as a blank control for the growth of test strains.
(§8) The minimal inhibitory concentration (MIC) of the test compounds on the strains of Streptococcus pneumoniae was determined by a standard broth macrodilution method, while the MIC of the test compounds on the other bacteria stains was determined by standard agar double dilution methods. The concentration of the test compounds was in the range of 32 mg/L-0.016 mg/L. The bacterial suspensions to be tested were inoculated by a multipoint inoculator, and the inoculation amount at each point is 10^4 CFU. The MIC of the test compound to each strain of the bacteria was determined.

S. pneumoniae = assay: In vitro antibacterial activity (MIC), S. pneumoniae; format: cell-based; details: S. pneumoniae (10 strains)
Description: as §1, §2, §3

MRSA = assay: Minimum bactericidal concentration (MBC) test, MRSA; format: cell-based, methicillin resistant Staphylococcus aureus
Description: as §7, §8
The MBC was determined by a tube double dilution method. Solutions of the test compounds was prepared and serially diluted. Each of the solutions was mixed with a bacterium suspension (10^6 CFU/mL), and then was incubated at 35° C. overnight. […]

VRE = assay: Minimum bactericidal concentration (MBC) test, VRE; format: cell-based, vancomycin resistant Enterococcus faecium
Description: as §7, §8
(§9) The MBC was determined by a tube double dilution method. Solutions of the test compounds was prepared and serially diluted. Each of the solutions was mixed with a bacterium suspension (10^6 CFU/mL), and then was incubated at 35° C. overnight. 0.1 mL of the culture supernatant of each tubes was inoculated on a plate containing no antibiotics, and then incubated at 35° C. for 18 h.

MSSA = assay: MIC against clinically isolated strains, MSSA; format: cell-based, methicillin sensitive Staphylococcus aureus; parameters: MICmode / MICrange: unit not given here; details: MSSA (14 strains)
Source text: as §4, §5, §6, §7
The minimal inhibitory concentration (MIC) of the test compounds on the strains of Streptococcus pneumoniae was determined by a standard broth macrodilution method, while the MIC of the test compounds on the other bacteria stains was determined by standard agar double dilution methods. […] The MIC of the test compound to each strain of the bacteria was determined.

gram-positive bacteria = assay: MBC test, 10 strains of clinically isolated gram-positive bacteria; format: cell-based
Description: In order to investigate whether the antibacterial activity of Compound 13f is bacteriostatic or bactericidal to gram-positive bacteria, we tested its MBC on 10 strains of gram-positive bacteria (established by clinical isolation), results as shown in Table 4.
as §9

[2] = Enterococcus, strain 09ZB145, VRE

## CC(=O)NC[C@H]1CN(c2ccc(N3CCOCC3)c(F)c2)C(=O)O1 [Linezolid, reference compound]
S. agalactiae
  MIC: 4000 to 32000 ng/mL
[1]
  MIC50: 1 ng/mL (≈ 0.00296 µM)
  MIC90: 1 ng/mL (≈ 0.00296 µM)
  MICmode: 1 µg/L
  MICrange: 1 to 2 µg/L
S. pneumoniae
  MIC: 2000 to 32000 ng/mL

## CC(=O)NC[C@H]1CN(c2ccc(-n3cc(-c4ccccn4)cn3)c(F)c2)C(=O)O1 [Compound 13f, (S)-N-((3-(3-fluoro-4-(4-(pyridin-2-yl)-1H-pyrazol-1-yl)phenyl)-2-oxooxazolidin-5-yl)methyl)acetamide]
MRSA; strain 09L075, MRSA
  MBC/MIC: 2
  MIC value: 2 ng/mL (≈ 0.00506 µM)
MRSA; strain 09N120, MRSA
  MBC/MIC: 1
VRE; [2]
  MBC: 8 ng/mL (≈ 0.0202 µM)
  MIC: 4 ng/mL (≈ 0.0101 µM)
VRE; strain 09ZB137, VRE
  MBC value: 8 ng/mL (≈ 0.0202 µM)
  MBC/MIC: 2
  MIC value: 4 ng/mL (≈ 0.0101 µM)
VRE; strain 09ZB145, VRE
  MBC/MIC: 2
S. agalactiae; Streptococcus agalactiae, read-out: MIC
  MIC: 250 to 2000 ng/mL (≈ 0.632 to 5.06 µM)
[1]
  MICmode: 1 µg/L
  MICrange: 1 to 2 µg/L
MSSA
  MICmode: 1
  MICrange: 0.5-1
MSSA; Staphylococcus aureus
  MIC50: 1 ng/mL (≈ 0.00253 µM)
  MIC90: 1 ng/mL (≈ 0.00253 µM)
S. pneumoniae; Streptococcus pneumoniae, read-out: MIC
  MIC: 250 to 1000 ng/mL (≈ 0.632 to 2.53 µM)
gram-positive bacteria; 3 of 4 tested strains of E. faecalis
  MBC/MIC ratio: 4
gram-positive bacteria; Staphylococcus sp. and Streptococcus pneumoniae
  ratio of MBC/MIC: 1-2
gram-positive bacteria; all the 10 tested strains
  ratio of MBC/MIC: ≤ 4
gram-positive bacteria; all the 10 tested strains, MBC/MIC ≦4
  bacteriostatic or bactericidal: bactericidal effect
